As usually defined, the GI50 is the concentration at which growth is held to half of that of the control. A word on the TGI: it is the concentration giving total growth inhibition. Read a high TGI as lower sensitivity of the cells.

Here are results for eight compounds from PubChem BioAssay (NCI).

Values joined by “and” are separate entries in the source; they are usually repeats but may differ in a detail not shown here. Identical values can stand only once.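 A five-concentration, 48-hour dose response in 96-well plates underlies each endpoint, interpolated linearly between surrounding concentrations. GI50 marks 50% less growth. TGI marks complete inhibition of growth.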

Some test systems named below: UO-31 renal; SN12C renal; SF-268 CNS; EKVX NSCLC; NCI-H23 lung; OVCAR-4 ovarian; HCT-116 colon; HOP-62 NSCLC; LOX IMVI melanoma; 786-0 renal.
What all share (assay): DTP human tumour cell line panel, 48 h

For `O=C(O)C(Cl)Cl`, the GI50 in the assay on UO-31 renal is 2090 µM and > 6870 µM; in the assay with SN12C renal it was 8180 µM and > 10000 µM; with SF-268 CNS it was 4970 µM and > 10000 µM; with EKVX NSCLC, above 10000 µM; with NCI-H23 lung, above 10000 µM; in the assay on OVCAR-4 ovarian it was 3300 µM and 8520 µM. Besides, the GI50 in the assay with HCT-116 colon is 6700 µM and > 10000 µM; in the assay on HOP-62 NSCLC, above 10000 µM; in the assay on LOX IMVI melanoma it was 7490 µM and > 10000 µM; in the assay with 786-0 renal it was 5690 µM and > 10000 µM. Further, the TGI with UO-31 renal was 5010 µM and > 9340 µM; in the assay on SN12C renal, above 10000 µM; in the assay with SF-268 CNS it was above 10000 µM; in the assay on EKVX NSCLC, above 10000 µM; in the assay with NCI-H23 lung, above 10000 µM; with OVCAR-4 ovarian, above 10000 µM. Besides, the TGI with HCT-116 colon, in the assay on HOP-62 NSCLC, in the assay with LOX IMVI melanoma and with 786-0 renal was above 10000 µM each time.
For the compound `COC(=O)/C=C/c1cc(OC(C)=O)c2c(c1)[C@@H](C(=O)OC)[C@H](c1ccc(OC(C)=O)c(OC(C)=O)c1)O2`, the GI50 was 0.131 µM in the assay on UO-31 renal; 0.121 µM in the assay with SN12C renal; 0.301 µM in the assay with SF-268 CNS; 2.38 µM in the assay on EKVX NSCLC; 0.0912 µM in the assay on NCI-H23 lung; 0.34 µM in the assay on OVCAR-4 ovarian. In addition, the GI50 was 0.0485 µM with HCT-116 colon, 0.0779 µM in the assay on HOP-62 NSCLC, 0.0615 µM in the assay with LOX IMVI melanoma and 0.0958 µM with 786-0 renal. Moreover, the TGI in the assay with UO-31 renal is 38 µM; in the assay on SN12C renal it was 99.7 µM; in the assay on SF-268 CNS, 57.5 µM; in the assay on EKVX NSCLC, above 94.3 µM; in the assay on NCI-H23 lung, 29.7 µM; in the assay on OVCAR-4 ovarian it was 38.2 µM. Besides, the TGI in the assay with HCT-116 colon is above 59.9 µM; with HOP-62 NSCLC, 63.9 µM; in the assay on LOX IMVI melanoma, 40.3 µM; in the assay on 786-0 renal it was above 100 µM.
Take `CN(C)C=Nc1nc(=O)n(C2CCC(CO)O2)cc1F` (centres undefined): the TGI in the assay on UO-31 renal, in the assay on SN12C renal, in the assay with SF-268 CNS, with EKVX NSCLC, in the assay with NCI-H23 lung and with OVCAR-4 ovarian was above 100 µM throughout. Also, the TGI with HOP-62 NSCLC, in the assay with LOX IMVI melanoma and in the assay with 786-0 renal was above 100 µM throughout.
Take `C/C=C/[C@@H]1O[C@@H]2COC(=O)C2=C[C@@H]1O`: the GI50 with UO-31 renal is 4.21 µM; with SN12C renal it was 15.4 µM; with SF-268 CNS it was 24.2 µM; in the assay with EKVX NSCLC, 17.5 µM; in the assay on NCI-H23 lung it was 14.1 µM; in the assay with OVCAR-4 ovarian, 16.1 µM. The GI50 in the assay on HCT-116 colon was 2.06 µM; in the assay on HOP-62 NSCLC it was 23.5 µM; in the assay with LOX IMVI melanoma it was 17.5 µM; with 786-0 renal, 6.79 µM. Further, the concentration for total growth inhibition (TGI) is above 51.6 µM in the assay on UO-31 renal; 31.4 µM with SN12C renal; 63.9 µM with SF-268 CNS; 36.7 µM with EKVX NSCLC; 37.3 µM in the assay on NCI-H23 lung; 42.8 µM with OVCAR-4 ovarian. The TGI worked out at 8.79 µM with HCT-116 colon, 43 µM in the assay on HOP-62 NSCLC, 36.1 µM in the assay on LOX IMVI melanoma and 21.1 µM in the assay with 786-0 renal.
`O=C1c2c(F)c(F)c(F)c(F)c2C(=O)N1c1ccc(F)cc1F`: the GI50 is 10.5 µM in the assay with UO-31 renal; 2.95 µM in the assay with SN12C renal; 10.1 µM in the assay on SF-268 CNS; 16.8 µM in the assay with EKVX NSCLC; 3.82 µM in the assay on NCI-H23 lung; 16.9 µM in the assay with OVCAR-4 ovarian. Besides, the GI50 in the assay with HCT-116 colon is 3.71 µM; in the assay with HOP-62 NSCLC, 15.2 µM; with LOX IMVI melanoma, 1.5 µM; with 786-0 renal, 11 µM. Also, the concentration for total growth inhibition (TGI) was above 48 µM with UO-31 renal; 10.1 µM in the assay with SN12C renal; 27.8 µM in the assay on SF-268 CNS; 35.9 µM in the assay on EKVX NSCLC; 9.82 µM in the assay on NCI-H23 lung; 53.3 µM in the assay with OVCAR-4 ovarian. The TGI in the assay on HCT-116 colon was 14.2 µM; in the assay on HOP-62 NSCLC, 31.4 µM; in the assay with LOX IMVI melanoma it was 5.11 µM; with 786-0 renal, above 43.8 µM.
As for `COc1ccc(CN2C(=O)C(Cl)=C(Nc3cccc(C(F)(F)F)c3)C2=O)cc1`, the GI50 with UO-31 renal is 5.54 µM; in the assay on SN12C renal it was 12.4 µM; in the assay on SF-268 CNS, 3.67 µM; with EKVX NSCLC, 8.34 µM; with NCI-H23 lung, 8.08 µM; with OVCAR-4 ovarian it was 4.74 µM. The GI50 in the assay with HCT-116 colon was 3.45 µM; in the assay with HOP-62 NSCLC it was 18.2 µM; in the assay with LOX IMVI melanoma, 3.08 µM; in the assay with 786-0 renal it was 8.02 µM. The TGI amounted to 32 µM in the assay with UO-31 renal; 30.8 µM in the assay on SN12C renal; 16.6 µM in the assay on SF-268 CNS; 68.7 µM with EKVX NSCLC; 42.4 µM in the assay with NCI-H23 lung; 30.6 µM in the assay with OVCAR-4 ovarian. The TGI was 15.4 µM in the assay with HCT-116 colon, above 100 µM with HOP-62 NSCLC, 14.1 µM with LOX IMVI melanoma and 30.1 µM in the assay with 786-0 renal.
As to `O=C1OCC2=C1C(c1cccc(Br)c1)c1cc3c(cc1N2CCO)OCCO3` (centres undefined), the GI50 was 0.127 µM in the assay with UO-31 renal; 0.188 µM in the assay on SN12C renal; 0.0766 µM with SF-268 CNS; 1.3 µM in the assay with EKVX NSCLC; 0.0911 µM with NCI-H23 lung; 0.131 µM in the assay with OVCAR-4 ovarian. Also, the GI50 is 0.0595 µM in the assay with HCT-116 colon, 0.0891 µM in the assay on HOP-62 NSCLC, 0.107 µM with LOX IMVI melanoma and 0.0695 µM in the assay on 786-0 renal. Further, the TGI in the assay with UO-31 renal is 36.5 µM; in the assay with SN12C renal, above 27.1 µM; in the assay with SF-268 CNS it was 8.38 µM; in the assay on EKVX NSCLC it was 48.7 µM; in the assay with NCI-H23 lung it was above 44.5 µM; with OVCAR-4 ovarian, above 50 µM. Also, the TGI stood at 2.07 µM in the assay with HCT-116 colon, 18.7 µM with HOP-62 NSCLC, 9.28 µM with LOX IMVI melanoma and 3.66 µM in the assay on 786-0 renal.
Turning to `NCCNCCNCCN`, the GI50 in the assay on UO-31 renal, in the assay on SN12C renal, in the assay on SF-268 CNS, in the assay with EKVX NSCLC, with NCI-H23 lung and with OVCAR-4 ovarian was above 100 µM throughout. For the same compound, the GI50 in the assay with HCT-116 colon, in the assay on HOP-62 NSCLC, with LOX IMVI melanoma and in the assay on 786-0 renal was above 100 µM in each case. The TGI in the assay with UO-31 renal, in the assay with SN12C renal, in the assay with SF-268 CNS, in the assay with EKVX NSCLC, in the assay on NCI-H23 lung and with OVCAR-4 ovarian was above 100 µM throughout. In addition, the TGI in the assay with HCT-116 colon, with HOP-62 NSCLC, with LOX IMVI melanoma and in the assay on 786-0 renal was above 100 µM throughout.
